Results from patent publication US7071165B2, “LHRH antagonist peptides” (Indiana University Research and Technology Corporation, priority 1995, dated 2006).
Where a name gives a salt, the structure may show the parent alone. Starred links: 1 amine or outer side, 2 acyl side, 3 side chain; linkers in the order of their positions; H or OH if unused. Non-standard residues stand in square brackets, D forms with d. Residues, ends and D or L forms follow the SMILES beside them. *: point of attachment. X2 = O=C([C@@H](Cc1ccc[n+](Cc2ccccc2)c1)N[*:1])[*:2]; dPhe(4-Cl) = N[C@H](Cc1ccc(Cl)cc1)C(=O)O; d2Nal = N[C@H](Cc1ccc2ccccc2c1)C(=O)O; Lys(iPr) = CC(C)NCCCC[C@H](N)C(=O)O; NMeY = CN[C@@H](Cc1ccc(O)cc1)C(=O)O; d3Pal = N[C@H](Cc1cccnc1)C(=O)O; NHCH2CH2SO3H = O=S(=O)(O)CCN*; X1 = O=C(c1ccc[n+]([O-])c1)*; Sar = CNCC(=O)O

Key:
[1] = test system: rat mast cells; assay: Histamine release assay, rat mast cells
Protocol: The term “histamine-releasing activity”, as used herein, refers to the tendency of a compound to release histamine when administered to a subject. The histamine-releasing activity of a compound can be measured with an in vitro assay (described in more detail, infra). […] Histamine-releasing activity was assayed by the method described in U.S. Pat. No. 4,851,385 to Roeske. Briefly, a suspension of rat mast cells was added to increasing concentrations of an LHRH antagonist peptide and incubated for 15 minutes at 37° C. The buffer contained 25 mM PIPES, pH 7.4, NaCl (119 mM), KCl (5 mM), NaOH (40 mM) glucose (5.6 mM), CaCl2 (1 mM) and 0.1% bovine serum albumin.

[2] = test system: ovulation in female rats; assay: Anti-ovulatory activity (AOA) in vivo assay in rats; parameters: species or system rat; settings: for AO activity (AOA), in words: rat, in vivo
Protocol: As used herein, “LHRH antagonist peptide” is intended to include peptides and peptide analogs which inhibit LHRH activity (i.e., has “LHRH antagonist activity”) in vivo or in vitro. Candidate LHRH antagonist peptides can be assayed, for example, in the animal model described in Corbin and Beattie, Endocrine Res. Commun. 2:1 (1975) (and see infra). In this assay, the LHRH antagonistic activity of a candidate compound is assayed by measuring the antiovulatory activity (AOA) of the compound in rats.
Anti-ovulatory activity (AOA) was measured by an in vivo assay in rats, as described in Corbin and Beattie, Endocrine Res. Commun. 2:1 (1975). In brief, female rats are injected with a candidate LHRH antagonist on the day of proestrus; in general, the candidate LHRH antagonist was dissolved in 0.1% DMSO. The ability of the candidate peptide to inhibit ovulation is measured by determining the number of rats which ovulate. A candidate peptide is considered to have LHRH antagonist qualities if it inhibits ovulation in at least 50% of the treated rats at a dose of 5 μg per rat. Preferred LHRH antagonists inhibit ovulation in at least 50% of rats at a dose of 2 μg per rat, more preferably at a dose of […], and still more preferably at a dose of 0.5 μg per rat.

[3] = test system: ovulation in female rats; assay: as above; settings: dose 0.5 μg per rat
[4] = rat mast cells, 15 minutes at 37° C.

Row | Compound | AO activity (AOA): rats which ovulate / rats treated ([2]; dose 1 μg per rat) | Histamine release ED50 [1, 4] [µg/mL] | AO activity (AOA): rats which ovulate / rats treated [3] | also measured
1 | CC(=O)N[C@H](Cc1ccc2ccccc2c1)C(=O)N[C@H](Cc1ccc(Cl)cc1)C(=O)N[C@H](Cc1cccnc1)C(=O)N[C@@H](CO)C(=O)N[C@@H](Cc1ccc(O)cc1)C(=O)N[C@H](CCC(N)=O)C(=O)N[C@@H](CC(C)C)C(=O)N[C@@H](CCCCNC(C)C)C(=O)N1CCC[C@H]1C(=O)N[C@H](C)C(N)=O [Compound 3341, Ac-D-Nal^1,4-Cl-D-Phe^2, D-Pal^3, D-Gln^6-Lys(iPr)^8, D-Ala^10-LHRH.TFA] (Ac-[d2Nal][dPhe(4-Cl)][d3Pal]SY[dQ]L[Lys(iPr)]P[dA]-NH2) |  |  |  | Histamine-releasing activity, in words [1]: very low histamine release
2 | Ac-D-Nal^1, 4-Cl-D-Phe^2, D-Pal^3, His^5D-Pal(iPr)^6, Lys(iPr)^8, D-Ala^10-LHRH.2TFA [Compound 3982] | 8/8@1.00 |  |  | Histamine release ED50 ([1]; footnote c: run with Nal arg reference 0.28): 53 µg/mL; Histamine release ED50 ([1]; footnote d: run with Nal arg reference 0.11): 33 µg/mL
3 | Ac-D-Nal^1, 4-Cl-D-Phe^2, D-Pal^3, D-Phe(4-NO2)^6-Lys(iPr)^8, D-Ala^10-LHRH.TFA [Compound 3364] | 6/8@1 μg | 14 |  | 
4 | Ac-D-Nal^1, 4-Cl-D-Phe^2, D-Trp^3, D-Met(S^+Me)^6, D-Ala^10-LHRH.2TFA [Compound 3879] | 0/8@1.0 |  | 6/8@0.5 | AO activity (AOA), in words [2]: high AOA
5 | Ac-D-Nal^1, 4-Cl-D-Phe^2, D-Pal^3, D-Lys(iPrPic)^6, Lys(iPr)^8, D-Ala^10-LHRH.TFA [Compound 3438] | 2/8@1 μg | 5.6 |  | 
6 | Ac-L-(or D)-Ada-Ala^1, 4-Cl-D-Phe^2, D-Pal^3, D-Cit^6-Lys(iPr)^8, D-Ala^10-LHRH.TFA [Compound 3369] |  | 93 |  | AO activity (AOA): rats which ovulate / rats treated ([2]; dose 5 μg per rat): 7/8@5 μg; Histamine-releasing activity, in words [1]: low histamine release
7 | Ac-D-Nal^1, 4-Cl-D-Phe^2, D-Pal^3, D-Arg^6, Met(S^+Me)^8, D-Ala^10-LHRH.2TFA [Compound 3983] | 0/8@1.00 |  | 8/8@0.5 | AO activity (AOA), in words [2]: high AOA; Histamine release ED50 ([1]; footnote g: run with Nal arg reference 0.1): 5.35 µg/mL; Histamine release ED50 ([1]; footnote h: run with Nal arg reference 0.02): 1.32 µg/mL
8 | CC(=O)N[C@H](Cc1ccc2ccccc2c1)C(=O)N[C@H](Cc1ccc(Cl)cc1)C(=O)N[C@H](Cc1cccnc1)C(=O)N[C@@H](CO)C(=O)N(C)[C@@H](Cc1ccc(O)cc1)C(=O)N[C@H](CCCCNC(=O)c1ccc[n+]([O-])c1)C(=O)N[C@@H](CC(C)C)C(=O)N[C@@H](CCCCNC(C)C)C(=O)N1CCC[C@H]1C(=O)N[C@H](C)C(N)=O [Compound 3828, Ac-D-Nal^1,4-Cl-D-Phe^2, D-Pal^3, N-Me-Tyr^5, D-Lys(Onic)^8, Lys(iPr)^8, D-Ala^10-LHRH.TFA] (Ac-[d2Nal][dPhe(4-Cl)][d3Pal]S[NMeY][dK](X1)L[Lys(iPr)]P[dA]-NH2) |  |  |  | Histamine-releasing activity, in words [1]: low histamine releasing activity
9 | Ac-D-Nal^1, 4-Cl-D-Phe^2, D-Pal^3, D-Arg^6, Orn(COCH2S^+Me2)^8, D-Ala^10, LHRH.2TFA [Compound 3985] | 0/8@1.00 |  | 8/8@0.5 | Histamine release ED50 ([1]; footnote a: run with Nal arg reference 0.11): 4.4 µg/mL; Histamine release ED50 ([1]; footnote b: run with Nal arg reference 0.14): 3.86 µg/mL
10 | Ac-D-Nal^1, 4-Cl-D-Phe^2, D-Pal^3, D-Pal(Bzl)^6, Lys(iPr)^8, D-Ala^10-LHRH.TFA [Compound 3429] | 0/8@1 μg | 6.0 | 4/8@0.5 μg | 
11 | CC(=O)N[C@H](Cc1ccc2ccccc2c1)C(=O)N[C@H](Cc1ccc(Cl)cc1)C(=O)N[C@H](Cc1cccnc1)C(=O)N[C@@H](CO)C(=O)N[C@@H](Cc1ccc(O)cc1)C(=O)N[C@H](CCC(=O)NCCS(=O)(=O)O)C(=O)N[C@@H](CC(C)C)C(=O)N[C@@H](CCCCNC(C)C)C(=O)N1CCC[C@H]1C(=O)N[C@H](C)C(N)=O [Compound 3361, Ac-D-Nal^1,4-Cl-D-Phe^2, D-Pal^3, D-Glu(Taurine)^6-Lys(iPr)^8, D-Ala^10-LHRH.TFA] (Ac-[d2Nal][dPhe(4-Cl)][d3Pal]SY[dE](NHCH2CH2SO3H)L[Lys(iPr)]P[dA]-NH2) |  |  |  | Histamine-releasing activity, in words [1]: very low histamine release
12 | Ac-D-Nal^1, 4-Cl-D-Phe^2, D-Trp^3, D-Arg^6, Met(S^+Me)^8, D-Ala^10-LHRH.2TFA [Compound 3878] | 2.8@1.0 |  | 7/8@0.5 | 
13 | Ac-D-Nal^1, 4-Cl-D-Phe^2, D-Pal^3, D-Lys(OTac)^6, Lys(iPr)^8, D-Ala^10-LHRH.TFA [Compound 3508] | 0/8@1 μg |  | 6/8@0.5 μg | 
14 | Ac-D-Nal^1, 4-Cl-D-Phe^2, D-Pal^3, D-Lys(Ppic)^6, Lys(iPr)^8, D-Ala^10-LHRH.TFA [Compound 3760] | 1/8@1.0 |  | 7/8@0.5 | AO activity (AOA), in words [2]: good AO activity
15 | Ac-D-Nal^1, 4-Cl-D-Phe^2, D-Pal^3, D-Cit^6-Lys(iPr)^8, Pip^9-LHRH.TFA [Compound 3363] | 6/8@1 μg | 25 |  | 
16 | Ac-D-Nal^1, 4-Cl-D-Phe^2, D-Pal^3, D-Cit^6-Lys(iPr)^8, ProNHEt^9-des-Gly^10-LHRH.TFA [Compound 3365] |  | 24 |  | 
17 | CC(=O)N(C)CC(=O)N[C@H](Cc1ccc(Cl)cc1)C(=O)N[C@H](Cc1ccc2ccccc2c1)C(=O)N[C@@H](CO)C(=O)N[C@@H](Cc1ccc(O)cc1)C(=O)N[C@H](Cc1ccc[n+](Cc2ccccc2)c1)C(=O)N[C@@H](CC(C)C)C(=O)N[C@@H](CCCCNC(C)C)C(=O)N1CCC[C@H]1C(=O)N[C@H](C)C(N)=O [Compound 3763, Ac-Sar^1,4-Cl-D-Phe^2, D-Nal^3, D-Pal(Bzl)^6, Lys(iPr)^8, D-Ala^10-LHRH.2TFA] (Ac-[Sar][dPhe(4-Cl)][d2Nal]SY[X2]L[Lys(iPr)]P[dA]-NH2) |  |  |  | Histamine-releasing activity, in words [1]: very little histamine-releasing activity
18 | Ac-D-Nal^1, 4-Cl-D-Phe^2, D-Pal^3, D-Lys(Imdac)^6, Lys(iPr)^8, D-Ala^10-LHRH.TFA [Compound 3741] | 1/8@1.0 |  | 6/8@0.5 | AO activity (AOA), in words [2]: good AO activity
19 | Ac-D-Nal^1, 4-Cl-D-Phe^2, D-Pal^3, Pal^5, D-Pal(iPr)^6, Lys(iPr)^8, D-Ala^10-LHRH.TFA [Compound 3430] | 3/8@1 μg | 10 |  | 
20 | Ac-D-Nal^1, 4-Cl-D-Phe^2, D-Pal^3, D-Cit^6-Lys(iPr)^8, Pip^9-D-Ala^10-LHRH.TFA [Compound 3344] | 9/10@1 μg | 32 |  | 
21 | CC(=O)N[C@H](Cc1ccc2ccccc2c1)C(=O)N[C@H](Cc1ccc(Cl)cc1)C(=O)N[C@H](Cc1cccnc1)C(=O)N[C@@H](CO)C(=O)N[C@@H](Cc1ccc(O)cc1)C(=O)N[C@@H](C(=O)N[C@@H](CC(C)C)C(=O)N[C@@H](CCCCNC(C)C)C(=O)N1CCC[C@H]1C(=O)N[C@H](C)C(N)=O)[C@H](C)O [Compound 3343, Ac-D-Nal^1,4-Cl-D-Phe^2, D-Pal^3, D-Thr^6-Lys(iPr)^8, D-Ala^10-LHRH.TFA] (Ac-[d2Nal][dPhe(4-Cl)][d3Pal]SY[dT]L[Lys(iPr)]P[dA]-NH2) |  |  |  | Histamine-releasing activity, in words [1]: very low histamine release
22 | Ac-D-(or L)-Ada-Ala^1, 4-Cl-D-Phe^2, D-Pal^3, D-Cit^6-Lys(iPr)^8, D-Ala^10-LHRH.TFA [Compound 3368] |  | 34 |  | AO activity (AOA): rats which ovulate / rats treated ([2]; dose 5 μg per rat): 5/8@5 μg
23 | Ac-D-Nal^1, 4-Cl-D-Phe^2, D-Pal^3, D-Cit^6-Lys(iPr)^8-LHRH.TFA [Compound 3362] | 4/8@1 μg | 22 |  | 
24 | CC(=O)N[C@H](Cc1ccc2ccccc2c1)C(=O)N[C@H](Cc1ccc(Cl)cc1)C(=O)N[C@H](Cc1cccnc1)C(=O)N[C@@H](CO)C(=O)N[C@@H](Cc1ccc(O)cc1)C(=O)N[C@H](CC(N)=O)C(=O)N[C@@H](CC(C)C)C(=O)N[C@@H](CCCCNC(C)C)C(=O)N1CCC[C@H]1C(=O)N[C@H](C)C(N)=O [Compound 3342, Ac-D-Nal^1,4-Cl-D-Phe^2, D-Pal^3, D-Asn^6-Lys(iPr)^8, D-Ala^10-LHRH.TFA] (Ac-[d2Nal][dPhe(4-Cl)][d3Pal]SY[dN]L[Lys(iPr)]P[dA]-NH2) |  |  |  | Histamine-releasing activity, in words [1]: very low histamine release
